The values that follow come from patent publication US20240188569A1, “NEW YEAST STRAIN AND ITS USES FOR THE CONTROL OF PHYTOPATHOGENS” (AGROVENTURES LLC, priority 2021, published 2024).

The assay deals with PT22AV. Description: Minimum inhibitory concentration of fungicides in NYDA agar. To be noted: for MIC: Papiliotrema terrestris, read-out: Minimum inhibitory concentration; for Resistance level: resistance level of PT22AV to the fungicide; for Minimum inhibitory concentration: fungicide against PT22AV, incorporated in NYDA agar.

Converted amounts (≈) assume the structure as drawn.

For the compound `c1ccc2[nH]c(-c3cscn3)nc2c1` [Thiabendazole], the MIC came out at 1000 µg/mL (≈ 4.97 mM) and the Resistance level result is listed as “Resistant”.

On to `[Cl-].[Cu+2].[Cu+2].[OH-].[OH-].[OH-]` [Copper oxychloride], for which the Minimum inhibitory concentration was 500 µg/mL and the Resistance level result is “Resistant”.

`N#Cc1c[nH]cc1-c1cccc2c1OC(F)(F)O2` [Fludioxonil]: the MIC came out at 1000 µg/mL (≈ 4.03 mM).

As to Mancozeb, the Minimum inhibitory concentration amounted to 300 µg/mL and the Resistance level entry was “Sensitive”.

With `COC(=O)Nc1nc2ccccc2[nH]1` [Carbendazim], the MIC worked out at 1000 µg/mL (≈ 5.23 mM) and the Resistance level result was “Resistant”.

Consider `CCCC(Cn1cncn1)c1ccc(Cl)cc1Cl` (stereo not drawn) [Penconazol], for which the MIC turned out to be 200 µg/mL (≈ 0.704 mM) and the Resistance level result was “Sensitive”.

As for `C=CC1(C)OC(=O)N(c2cc(Cl)cc(Cl)c2)C1=O` (stereo not drawn) [Vinclozolin], the MIC came out at 1000 µg/mL (≈ 3.5 mM) and the Resistance level entry is listed as “Resistant”.

For the compound `CO/C=C(/C(=O)OC)c1ccccc1Oc1cc(Oc2ccccc2C#N)ncn1` [Azoxystrobin], the Minimum inhibitory concentration was determined as 1000 µg/mL (≈ 2.48 mM) and the Resistance level entry is recorded as “Resistant”.

Turning to `CC(C)(C)C(O)(CCc1ccc(Cl)cc1)Cn1cncn1` (stereo not drawn) [Tebuconazole], the MIC came to 100 µg/mL (≈ 0.325 mM) and the Resistance level entry is “Sensitive”.

Regarding `CC12CC1(C)C(=O)N(c1cc(Cl)cc(Cl)c1)C2=O` (stereo not drawn) [Procymidone], the MIC was found to be 1000 µg/mL (≈ 3.52 mM) and the Resistance level result is reported as “Resistant”.

Take `C=CCOC(Cn1ccnc1)c1ccc(Cl)cc1Cl` (stereo not drawn) [Imazalil]: the MIC was determined as 300 µg/mL (≈ 1.01 mM) and the Resistance level entry was “Sensitive”.

As to `CCCCNC(=O)n1c(NC(=O)OC)nc2ccccc21` [Benomyl], the MIC was 1000 µg/mL (≈ 3.44 mM) and the Resistance level result is “Resistant”.

Turning to `CON=C(C(=O)OC)c1ccccc1CON=C(C)c1cccc(C(F)(F)F)c1` [Trifloxystrobin], the MIC turned out to be 1000 µg/mL (≈ 2.45 mM) and the Resistance level result is recorded as “Resistant”.

Regarding `S1SSSSSSS1` [Sulfur], the MIC was 2000 µg/mL (≈ 7.8 mM) and the Resistance level entry is on record as “Resistant”.
